According to patent US20120108668A1, “METABOLIC PROFILES” (priority 2009, published 2012):

Experiments:
AIA Lewis rats = test: Treatment study of the active compound in AIA Lewis rats; serum metabolite profile by GC/TOFMS and OPLS; type: in vivo; conditions: 1 mg, 3 mg or 10 mg active compound
Text: This example illustrates the potency of the active compound and its therapeutically active acid addition salts for treatment of […].
AIA was induced in a total of 21 Lewis rats were included in the treatment study. Samples used consist of the following blood samples: • 22 samples from AIA Lewis rats (one of the rats was sampled twice) • 26 samples from treated AIA Lewis rats (five of the rats was sampled twice)
Different treatments were distributed in the AIA subjects as follows: • 5 subjects received 1 mg active compound • 5 subjects received 3 mg active compound • 6 subjects received 10 mg active compound • 5 subjects received 1 mg methotrexate Extraction of Metabolites from Serum
(§1) Extraction of metabolites from serum samples was essentially performed as the method described by A et al. (2005). 630 μl of MeOH:H2O (9:1 V:V) including internal standards was added to 70 μl of serum. The solution was vortex mixed for 10 s, kept on ice for 10 min, and then vigorously extracted at a frequency of 30 Hz for 3 min using a MM301 vibration Mill (Retsch GmbH & Co. KG, Haan, Germany. After […] on ice, the samples were centrifuged at 19 600 g for 10 min at 4° C. 200 μl of the supernatant was transferred to a GC vial, and 50 μl was transferred to a LC/MS vial and evaporated to dryness.
GC/TOFMS analysis and the Data processing of MS-data was carried out as in Example 1 above.

AIA DA rats = test: Treatment of RA in an AIA rat model with an experimental substance; serum metabolite profile by GC/TOFMS and OPLS-DA; type: in vivo, Dark Agouti (DA) rats; conditions: treated vs untreated; for regulation of endogenous metabolite levels in treated animals (OPLS-DA loadings): FIG. 7B
Text: Treatment of RA in an AIA Rat Model with an Experimental Substance (Arginine)
AIA was induced in three Dark Agouti (DA) rats and the rats were then given treatment with an experimental substance.
The rat model samples used consist of the following blood samples: • 3 samples from AIA DA rats • 4 samples (one of the rats was sampled twice) from AIA DA rats treated with the experimental substance. Extraction of Metabolites from Serum
as §1
Prior GC/MS analysis the samples were derivatised with 30 μL of methoxyamine hydrochloride (15 mg mL-1) in pyridine by shaking for 10 min at 5° C., then incubating them for 16 h at room temperature. The samples were then trimethylsilylated by adding 30 μL of […] (MSTFA) with 1% TMCS and incubating them for 1 h at room temperature. After silylation, 30 μL of heptane (containing 0.5 μg methyl stearate as internal standard) was added. 0.1 μl of derivatized sample was injected split less by an Agilent 7683 Series Autosampler (Agilent, Atlanta; GA, USA) into an Agilent 6980 GC equipped with a 10 m×0.18 mm ID, fused silica capillary column chemically bonded with 0.18 μm DB5-MS stationary phase (J&W Scientific, Folsom, Calif., USA). The injector temperature was set at 270° C. Helium was used as carrier gas at a constant flow rate of 1 ml/min through the column. For every analysis, the purge time was set to 60 s at a purge flow rate of 20 ml min-1 and an equilibration time of 1 min. […]

Structure (SMILES)	levels of the metabolites associated with AD, effect of treatment (AIA Lewis rats)	melting point	separation of untreated and treated AIA animals in the OPLS-DA scores scatter plot (patterns of endogenous metabolites) (AIA DA rats; FIG. 7A)	regulation of endogenous metabolite levels in treated animals (OPLS-DA loadings) (AIA DA rats)	regulation of endogenous metabolite levels in treated animals (OPLS-DA loadings) (AIA DA rats; listed as administered substance)
COc1ccc(C=NNC(=N)N)c(Cl)c1OC [active compound, N-(2-chloro-3,4-dimethoxybenzylideneamino)guanidine]	significantly affected	198 to 200 °C			
N=C(N)NCCC[C@H](N)C(=O)O [experimental substance, Arginine]			well separated	Almost all metabolites are up regulated	up regulation of many of the metabolites
